Assay results taken from patent publication US11077097B2, “Use of aromatic ring drug in inhibiting key transcription factor of malignant melanoma” (SHANGHAI INSTITUTE OF ORGANIC CHEMISTRY, CHINESE ACADEMY OF …, priority 2017, dated 2021).
pIC50: −log10 of the molar value.

Key:
[1] = system: melanin formation; assay: Forskolin-induced melanin production; format: cell-based
Text: MITF regulated the transcription and expression of melanin synthase TYR, TYRP1, and is the main regulatory factor of melanin formation. Foskolin, a small molecule compound, could regulate pathway, promote the expression of MITF, and promote melanin production by activating MSH-cAMP-CREB.

[2] = target: LysRS-p38 interaction (Homo sapiens, UniProt Q13155+Q15046); assay: AlphaScreen control test, LysRS-p38 interaction; format: binding
[3] = system: B16F10 cells; assay: MTT cell activity, MITF-dependent melanoma cell line B16F10; format: cell-based; details: Mus musculus, B16-F10, MITF-dependent and highly expressed, read-out: IC50 of inhibiting growth of B16F10 cells
Protocol: (§1) The active TT012 was incubated with MITF-dependent and highly expressed melanoma cell line B16F10, the melanoma cell line A375 with low expression of MITF, and control cell line Hela, respectively, and cell activity was detected by MTT experiment.

[4] = target: T1, MITF dimer (Homo sapiens, UniProt O75030); assay: AlphaScreen high-throughput screening model MIDAS (MITF Dependent Alpha-Screen), MITF dimer formation; format: binding; details: read-out: IC50 of inhibiting formation of MITF dimer
T1 sequence (O75030 1-526): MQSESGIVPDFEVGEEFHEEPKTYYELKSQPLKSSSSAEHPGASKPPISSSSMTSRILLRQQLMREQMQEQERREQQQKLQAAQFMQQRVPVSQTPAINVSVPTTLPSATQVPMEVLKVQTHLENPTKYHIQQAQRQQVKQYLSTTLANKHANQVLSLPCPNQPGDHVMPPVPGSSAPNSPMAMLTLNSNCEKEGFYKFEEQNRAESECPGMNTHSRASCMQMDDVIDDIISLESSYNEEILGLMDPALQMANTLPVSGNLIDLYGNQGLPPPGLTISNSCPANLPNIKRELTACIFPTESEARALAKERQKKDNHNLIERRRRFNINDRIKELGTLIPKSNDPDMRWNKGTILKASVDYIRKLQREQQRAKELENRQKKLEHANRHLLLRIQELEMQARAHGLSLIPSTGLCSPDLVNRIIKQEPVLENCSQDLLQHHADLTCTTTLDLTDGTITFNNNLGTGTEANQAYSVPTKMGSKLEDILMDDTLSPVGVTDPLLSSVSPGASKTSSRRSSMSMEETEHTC
Text: In the AlphaScreen high-throughput screening model MIDAS (MITF Dependent Alpha-Screen), MITF was labeled with a Biotin tag recognized by Alpha donor beads and a His tag recognized by Alpha receptor beads, respectively. When MITF formed a dimer, Alpha Donor beads and Alpha Receptor beads were pulled close to each other and detected by 680 nm excitation light and 520-620 nm emission light, thereby monitoring the formation of MITF dimer.

[5] = system: A375 cells; assay: MTT cell activity, melanoma cell line A375 with low expression of MITF; format: cell-based
Protocol: as §1

[6] = system: MITF landmark downstream genes-TYR and TRPM1; assay: Fluorescent quantitative RT-PCR of MITF downstream genes in B16F10 cells; format: cell-based; details: Mus musculus, B16-F10, B16F10 cell line, read-out: IC50 of inhibiting mRNA levels of TYR and TRPM1
Protocol: TT-012 was incubated with melanoma cell B16F10 cell line, mRNA was extracted and reverse transcripted, and the transcription of MITF landmark downstream genes-TYR (tyrosinase) and TRPM1 (transient receptor potential cation channel M1) were detected by fluorescent quantitative PCR.

[7] = system: Hela cells; assay: MTT cell activity, control cell line Hela; format: cell-based
Protocol: as §1

LysRS-p38 interaction, sequence (Q15046 whole entry): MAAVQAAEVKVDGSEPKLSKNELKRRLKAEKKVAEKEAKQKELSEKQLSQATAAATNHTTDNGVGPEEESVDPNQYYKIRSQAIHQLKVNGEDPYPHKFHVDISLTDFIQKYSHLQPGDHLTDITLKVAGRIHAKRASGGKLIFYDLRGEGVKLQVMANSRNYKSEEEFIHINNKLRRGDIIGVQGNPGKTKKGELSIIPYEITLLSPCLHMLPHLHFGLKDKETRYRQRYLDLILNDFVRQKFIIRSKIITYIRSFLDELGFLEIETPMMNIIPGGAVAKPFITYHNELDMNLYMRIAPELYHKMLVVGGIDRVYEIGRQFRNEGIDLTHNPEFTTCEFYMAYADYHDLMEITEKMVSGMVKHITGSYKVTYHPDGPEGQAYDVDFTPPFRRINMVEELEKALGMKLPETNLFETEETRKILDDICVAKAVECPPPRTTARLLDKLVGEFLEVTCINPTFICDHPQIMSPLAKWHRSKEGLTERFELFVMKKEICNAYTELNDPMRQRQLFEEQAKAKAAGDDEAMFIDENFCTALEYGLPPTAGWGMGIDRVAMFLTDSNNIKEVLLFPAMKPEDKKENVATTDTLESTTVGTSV
LysRS-p38 interaction, sequence (Q13155 whole entry): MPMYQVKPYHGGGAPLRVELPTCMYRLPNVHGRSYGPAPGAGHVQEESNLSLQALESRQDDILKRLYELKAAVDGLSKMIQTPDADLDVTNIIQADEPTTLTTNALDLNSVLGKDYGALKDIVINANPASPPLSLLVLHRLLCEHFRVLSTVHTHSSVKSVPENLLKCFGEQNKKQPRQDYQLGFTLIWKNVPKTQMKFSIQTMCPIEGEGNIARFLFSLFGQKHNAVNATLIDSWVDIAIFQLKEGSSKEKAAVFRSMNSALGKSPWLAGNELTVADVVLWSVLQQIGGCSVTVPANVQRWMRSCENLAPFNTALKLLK

effect on AlphaScreen signal of LysRS-p38 interaction [2]: not affect
pIC50 [3]: 6.52
pIC50 [4]: 8.00
pIC50 [6]: 5.70
Structure (SMILES): O=C(/C=C/c1ccco1)Nc1cccc(NC(=O)/C=C/c2ccco2)n1 [TT-012]
inhibition of melanin formation [1]: effectively inhibit
killing effect on A375 cells [5]: no killing effects
killing effect on control cells HELA [7]: no killing effects
